Source: patent US8835432B2, “Heterocyclic compounds and their uses” (Amgen Inc., priority 2012, dated 2014)

Legend:
PI3K d = target: T1, PI3K d (Homo sapiens, UniProt O00329); test: In vitro enzyme assay, PI3K delta; type: biochemical
T1 construct: Full length p110 subunits of PI3k α, β and δ, N-terminally labeled with polyHis tag; polyHis (N); made in house; host or cells: Sf9 insect cells (baculovirus)
Method: (§1) Full length p110 subunits of PI3k α, β and δ, N-terminally labeled with polyHis tag, were coexpressed with p85 with Baculo virus expression vectors in sf9 insect cells. P110/p85 heterodimers were purified by sequential Ni-NTA, Q-HP, Superdex-100 chromatography. Purified α, β and δ isozymes were stored at −20° C. in 20 mM Tris, pH 8, 0.2M NaCl, 50% glycerol, 5 mM DTT, 2 mM Na cholate. Truncated PI3Kγ, residues 114-1102, N-terminally labeled with polyHis tag, was expressed with Baculo virus in Hi5 insect cells. The γ isozyme was purified by sequential Ni-NTA, Superdex-200, Q-HP chromatography. The γ isozyme was stored frozen at −80° C. in NaH2PO4, pH 8, 0.2M NaCl, 1% ethylene glycol, 2 mM β-mercaptoethanol.
(§2) Assays were performed in 25 μL with the above final concentrations of components in white polyproplyene plates (Costar 3355). Phospatidyl inositol phosphoacceptor, PtdIns(4,5)P2 P4508, was from Echelon Biosciences. The ATPase activity of the alpha and gamma isozymes was not greatly stimulated by PtdIns(4,5)P2 under these conditions and was therefore omitted from the assay of these isozymes. Test compounds were dissolved in dimethyl sulfoxide and diluted with three-fold serial dilutions. The compound in DMSO (1 μL) was added per test well, and the inhibition relative to reactions containing no compound, with and without enzyme was determined After assay incubation at rt, the reaction was stopped and residual ATP determined by addition of an equal volume of a commercial ATP bioluminescence kit (Perkin Elmer EasyLite) according to the manufacturer's instructions, and detected using a AnalystGT luminometer.

PI3K b = test: In vitro enzyme assay, PI3K beta; type: biochemical; settings: ratio of beta to delta IC50
Method: as §1, §2

PI3Ka = target: T2, PI3Ka (Homo sapiens, UniProt P42336); test: In vitro enzyme assay, PI3K alpha; type: biochemical
T2 construct: Full length p110 subunits of PI3k α, β and δ, N-terminally labeled with polyHis tag; polyHis (N); made in house; host or cells: Sf9 insect cells (baculovirus)
Method: as §1, §2

PI3Kg = target: T3, PI3Kg (Homo sapiens, UniProt P48736); test: In vitro enzyme assay, PI3K gamma; type: biochemical
T3 construct: Truncated PI3Kγ, residues 114-1102, N-terminally labeled with polyHis tag; polyHis (N); made in house; host or cells: Hi5 insect cells (baculovirus)
Method: as §1, §2

Human B cells = Human B cells proliferation stimulated by anti-IgM; type: cell-based; settings: Hu B Cell anti-IgM, note under the cell, read-out: on target anti-IgM (Hu B Cell anti-IgM)
Method: Human B Cells Proliferation Stimulate by Anti-IgM
Isolate PBMCs from Leukopac or from human fresh blood. Isolate human B cells by using Miltenyi protocol and B cell isolation kit II.-human B cells were Purified by using AutoMacs.column.
Activation of Human B Cells
Use 96 well Flat bottom plate, plate 50000/well purified B cells in B cell proliferation medium (DMEM+5% FCS, 10 mM Hepes, 50 μM 2-mercaptoethanol); 150 μL medium contain 250 ng/mL CD40L-LZ recombinant protein (Amgen) and 2 μg/mL anti-Human IgM antibody (Jackson ImmunoReseach Lab.#109-006-129), mixed with 50 μL B cell medium containing PI3K inhibitors and incubate 72 h at 37° C. incubator. After 72 h, pulse labeling B cells with 0.5-1 uCi/well ^3H thymidine for overnight ˜18 h, and harvest cell using TOM harvester.

PI3KIII = target: T4, PI3KIII (Homo sapiens, UniProt Q8NEB9); test: Class III PI(3)P assay (U20S EGFP-2XFYVE cells); type: cell-based
T4 construct: host or cells: U2OS EGFP-2XFYVE cells
Method: (§3) GFP Assays for Detecting Inhibition of Class Ia and Class III PI3K
FYVE domains bind to PI(3)P. the majority is generated by constitutive action of PI3K Class III
Class III PI(3)P assay (U20S EGFP-2XFYVE Cells/GE Healthcare)
Wash cells with assay buffer. Treat with compounds in assay buffer 1 h. Fix and image.
Control for all 3 assays is […] Wortmannin:
PI(3)P depleted from endosomes

PI3Kb [1] = target: T5, PI3Kb (Homo sapiens, UniProt P42338); test: Forkhead translocation assay (MDA MB468 Forkhead-DiversaGFP cells); type: cell-based; set-up: endogenous in cells; host or cells: MDA MB468 (Forkhead-DiversaGFP) cells; settings: first value of the cell; MDA468 forkhead; read-out: PI3KbMDA468 FH
Method: as §3
Forkhead (FKHRL1) is a substrate for AKT1. It is cytoplasmic when phosphorylated by AKT (survival/growth). Inhibition of AKT (stasis/apoptosis)-forkhead translocation to the nucleus
Forkhead Translocation Assay (MDA MB468 Forkhead-DiversaGFP Cells)
Treat cells with compound in growth medium 1 h. Fix and image.

PI3Kb [2] = target: T5, PI3Kb; test: In vitro enzyme assay, PI3K beta; type: biochemical; set-up: Full length p110 subunits of PI3k α, β and δ, N-terminally labeled with polyHis tag; polyHis (N); made in house; host or cells: Sf9 insect cells (baculovirus); settings: read-out: P13K b IC50
Method: as §1, §2

p110δ = p110δ (Homo sapiens, UniProt O00329); settings: cited from earlier work
protein kinases = settings: cited from earlier work
murine model of asthma = settings: ovalbumin-induced airway inflammation; cited from earlier work

Sequence of p110δ (O00329 whole entry, species assumed): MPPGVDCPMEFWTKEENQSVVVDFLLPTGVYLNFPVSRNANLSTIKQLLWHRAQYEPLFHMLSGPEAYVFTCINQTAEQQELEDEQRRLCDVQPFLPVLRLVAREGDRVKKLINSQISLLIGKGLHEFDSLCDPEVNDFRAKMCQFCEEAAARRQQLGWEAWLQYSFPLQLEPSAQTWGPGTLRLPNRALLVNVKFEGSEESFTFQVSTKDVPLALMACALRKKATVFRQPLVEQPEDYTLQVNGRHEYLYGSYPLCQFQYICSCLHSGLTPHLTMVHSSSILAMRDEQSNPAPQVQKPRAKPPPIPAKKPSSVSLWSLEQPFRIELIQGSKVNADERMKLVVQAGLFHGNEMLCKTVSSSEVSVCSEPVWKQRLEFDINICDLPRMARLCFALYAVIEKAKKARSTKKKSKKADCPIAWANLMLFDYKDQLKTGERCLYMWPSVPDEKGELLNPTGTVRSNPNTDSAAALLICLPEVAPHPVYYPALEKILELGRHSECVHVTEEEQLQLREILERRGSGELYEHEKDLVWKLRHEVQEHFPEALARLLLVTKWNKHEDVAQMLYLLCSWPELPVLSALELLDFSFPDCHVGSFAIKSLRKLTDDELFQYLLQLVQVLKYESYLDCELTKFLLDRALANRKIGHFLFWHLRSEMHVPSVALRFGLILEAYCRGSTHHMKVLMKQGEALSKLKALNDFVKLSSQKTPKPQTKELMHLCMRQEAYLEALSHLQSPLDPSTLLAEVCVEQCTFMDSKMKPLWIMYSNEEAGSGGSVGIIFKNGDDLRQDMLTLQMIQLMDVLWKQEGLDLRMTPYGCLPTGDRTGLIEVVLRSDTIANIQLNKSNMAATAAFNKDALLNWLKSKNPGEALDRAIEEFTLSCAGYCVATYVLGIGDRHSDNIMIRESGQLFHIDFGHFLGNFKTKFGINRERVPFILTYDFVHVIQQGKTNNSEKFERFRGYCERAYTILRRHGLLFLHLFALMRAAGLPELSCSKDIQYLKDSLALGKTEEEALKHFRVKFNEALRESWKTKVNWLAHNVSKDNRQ
T2 sequence (P42336 whole entry): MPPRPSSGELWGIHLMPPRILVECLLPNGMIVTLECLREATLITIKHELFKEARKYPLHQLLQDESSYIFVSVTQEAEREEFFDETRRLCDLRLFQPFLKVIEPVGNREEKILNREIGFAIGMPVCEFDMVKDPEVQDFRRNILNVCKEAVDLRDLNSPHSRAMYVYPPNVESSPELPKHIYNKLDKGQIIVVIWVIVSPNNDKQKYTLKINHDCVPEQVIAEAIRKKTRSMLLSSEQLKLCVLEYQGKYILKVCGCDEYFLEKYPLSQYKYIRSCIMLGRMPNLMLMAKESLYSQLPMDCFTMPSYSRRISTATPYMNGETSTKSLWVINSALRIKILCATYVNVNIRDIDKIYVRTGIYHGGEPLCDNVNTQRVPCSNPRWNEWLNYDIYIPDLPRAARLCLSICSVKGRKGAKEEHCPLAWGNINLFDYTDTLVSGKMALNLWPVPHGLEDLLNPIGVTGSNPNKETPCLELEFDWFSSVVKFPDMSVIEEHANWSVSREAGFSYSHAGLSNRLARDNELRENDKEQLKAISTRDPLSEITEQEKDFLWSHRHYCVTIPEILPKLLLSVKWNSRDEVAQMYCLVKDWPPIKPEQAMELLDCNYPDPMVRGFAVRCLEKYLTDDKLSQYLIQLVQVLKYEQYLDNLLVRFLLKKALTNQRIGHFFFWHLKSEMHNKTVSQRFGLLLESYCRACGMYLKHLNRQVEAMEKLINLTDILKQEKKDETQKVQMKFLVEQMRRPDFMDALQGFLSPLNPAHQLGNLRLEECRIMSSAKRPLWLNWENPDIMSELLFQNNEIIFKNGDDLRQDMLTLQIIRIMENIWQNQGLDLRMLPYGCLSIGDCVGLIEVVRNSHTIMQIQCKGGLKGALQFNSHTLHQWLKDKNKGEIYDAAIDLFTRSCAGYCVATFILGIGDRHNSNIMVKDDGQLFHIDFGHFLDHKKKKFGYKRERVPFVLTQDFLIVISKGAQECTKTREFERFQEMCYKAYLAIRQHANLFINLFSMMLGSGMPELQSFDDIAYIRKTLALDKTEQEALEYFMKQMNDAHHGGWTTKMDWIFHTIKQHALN
T2 sequence (P27986 whole entry partner): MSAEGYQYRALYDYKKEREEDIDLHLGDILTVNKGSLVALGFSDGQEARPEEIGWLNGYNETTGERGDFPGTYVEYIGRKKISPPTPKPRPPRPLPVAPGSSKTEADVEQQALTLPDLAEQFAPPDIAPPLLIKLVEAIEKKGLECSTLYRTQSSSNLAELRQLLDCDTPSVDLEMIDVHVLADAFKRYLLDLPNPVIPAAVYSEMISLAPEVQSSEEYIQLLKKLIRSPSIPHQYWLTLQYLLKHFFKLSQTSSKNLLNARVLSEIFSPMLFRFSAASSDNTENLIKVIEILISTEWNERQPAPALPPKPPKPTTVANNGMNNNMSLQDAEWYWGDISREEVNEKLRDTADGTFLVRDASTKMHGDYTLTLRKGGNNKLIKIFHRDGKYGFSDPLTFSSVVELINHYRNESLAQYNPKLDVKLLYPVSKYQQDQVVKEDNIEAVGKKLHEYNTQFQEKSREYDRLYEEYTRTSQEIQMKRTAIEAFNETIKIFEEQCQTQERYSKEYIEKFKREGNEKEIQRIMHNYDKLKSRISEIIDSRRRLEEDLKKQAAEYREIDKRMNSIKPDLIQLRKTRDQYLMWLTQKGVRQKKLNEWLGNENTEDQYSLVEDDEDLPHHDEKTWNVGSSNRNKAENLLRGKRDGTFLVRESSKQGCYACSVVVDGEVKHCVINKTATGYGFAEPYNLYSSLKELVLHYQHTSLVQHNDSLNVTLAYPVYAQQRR
T3 sequence (P48736 114-1102): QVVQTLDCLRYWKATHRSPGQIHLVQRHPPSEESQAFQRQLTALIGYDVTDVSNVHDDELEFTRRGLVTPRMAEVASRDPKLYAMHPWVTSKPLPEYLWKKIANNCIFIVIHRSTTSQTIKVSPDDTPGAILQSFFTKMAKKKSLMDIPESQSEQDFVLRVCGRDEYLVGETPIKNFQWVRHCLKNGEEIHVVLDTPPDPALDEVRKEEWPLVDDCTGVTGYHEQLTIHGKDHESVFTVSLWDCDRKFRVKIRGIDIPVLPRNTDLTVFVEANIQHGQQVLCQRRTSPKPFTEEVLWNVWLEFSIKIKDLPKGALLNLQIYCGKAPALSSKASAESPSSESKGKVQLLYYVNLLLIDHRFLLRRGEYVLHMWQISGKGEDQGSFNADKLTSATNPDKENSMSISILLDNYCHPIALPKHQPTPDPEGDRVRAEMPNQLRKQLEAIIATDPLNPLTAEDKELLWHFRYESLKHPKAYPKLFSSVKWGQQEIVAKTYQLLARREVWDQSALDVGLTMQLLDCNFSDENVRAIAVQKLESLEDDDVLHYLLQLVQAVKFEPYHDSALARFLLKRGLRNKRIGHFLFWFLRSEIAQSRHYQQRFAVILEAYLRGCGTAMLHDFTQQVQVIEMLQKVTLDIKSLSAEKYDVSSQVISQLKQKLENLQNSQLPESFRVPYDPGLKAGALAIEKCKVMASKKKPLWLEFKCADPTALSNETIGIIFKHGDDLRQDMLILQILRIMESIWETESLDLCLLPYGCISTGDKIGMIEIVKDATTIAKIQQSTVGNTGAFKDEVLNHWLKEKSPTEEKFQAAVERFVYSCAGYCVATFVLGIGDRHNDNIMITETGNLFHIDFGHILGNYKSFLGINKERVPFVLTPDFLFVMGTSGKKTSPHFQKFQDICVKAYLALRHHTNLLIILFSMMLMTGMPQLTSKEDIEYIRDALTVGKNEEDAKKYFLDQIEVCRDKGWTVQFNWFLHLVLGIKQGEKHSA
T5 sequence (P42338 whole entry): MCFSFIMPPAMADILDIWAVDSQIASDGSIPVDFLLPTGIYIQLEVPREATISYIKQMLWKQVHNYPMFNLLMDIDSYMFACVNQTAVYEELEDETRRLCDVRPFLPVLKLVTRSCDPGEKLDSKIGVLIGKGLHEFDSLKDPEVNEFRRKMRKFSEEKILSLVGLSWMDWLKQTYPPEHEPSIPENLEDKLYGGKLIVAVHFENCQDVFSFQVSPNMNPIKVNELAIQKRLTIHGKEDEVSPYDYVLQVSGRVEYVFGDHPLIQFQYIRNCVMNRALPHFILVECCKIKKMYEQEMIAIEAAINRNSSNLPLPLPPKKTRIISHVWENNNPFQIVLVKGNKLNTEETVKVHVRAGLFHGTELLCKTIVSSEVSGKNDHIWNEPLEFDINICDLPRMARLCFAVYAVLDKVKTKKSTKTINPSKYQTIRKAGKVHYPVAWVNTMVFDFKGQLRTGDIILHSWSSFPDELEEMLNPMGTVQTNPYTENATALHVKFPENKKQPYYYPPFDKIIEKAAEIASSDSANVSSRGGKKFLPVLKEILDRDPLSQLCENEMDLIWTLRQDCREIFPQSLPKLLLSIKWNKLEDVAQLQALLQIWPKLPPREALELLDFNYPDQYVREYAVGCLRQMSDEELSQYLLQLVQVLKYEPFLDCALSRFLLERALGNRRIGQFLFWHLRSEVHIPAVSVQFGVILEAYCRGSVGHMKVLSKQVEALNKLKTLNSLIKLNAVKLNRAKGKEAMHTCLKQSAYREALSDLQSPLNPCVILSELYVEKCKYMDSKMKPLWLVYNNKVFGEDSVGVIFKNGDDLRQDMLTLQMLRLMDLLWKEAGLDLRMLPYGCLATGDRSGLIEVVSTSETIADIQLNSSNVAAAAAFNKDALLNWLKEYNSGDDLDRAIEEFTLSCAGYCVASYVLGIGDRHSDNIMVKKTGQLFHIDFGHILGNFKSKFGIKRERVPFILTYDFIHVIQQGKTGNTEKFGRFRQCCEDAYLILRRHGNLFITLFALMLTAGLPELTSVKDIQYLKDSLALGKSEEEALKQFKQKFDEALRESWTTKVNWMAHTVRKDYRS
T5 sequence (P27986 whole entry partner): as the sequence (P27986 whole entry partner) above
T1 sequence (O00329 whole entry): as the sequence (O00329 whole entry, species assumed) above
T1 sequence (P27986 whole entry partner): as the sequence (P27986 whole entry partner) above

C[C@H](Nc1ncnc(N)c1C#N)c1nc2ccc(F)cc2nc1-c1ccccn1 [Example 7, (S)-4-Amino-6-((1-(6-fluoro-3-(pyridin-2-yl)quinoxalin-2-yl)ethyl)amino)-pyrimidine-5-carbonitrile]
IC50 (PI3K d): 11.7 nM
PI3K: b/d (PI3K b): 213
PI3Ka IC50 (PI3Ka): 12700 nM
PI3K: a/d (PI3Ka; ratio of alpha to delta IC50): 1085
IC50 (PI3Kg): 3900 nM
PI3K: g/d (PI3Kg; ratio of gamma to delta IC50): 333
IC50 (Human B cells): 10.4 nM
IC50 (PI3KIII): > 10000 nM
IC50 (PI3Kb [1]): > 10000 nM
IC50 (PI3Kb [2]): 2490 nM

Cc1ccccc1-n1c(Cn2cnc3c(N)ncnc32)nc2cccc(C)c2c1=O [IC87114]
inhibits p110δ (p110δ): high nanomolar range (triple digit)
selectivity against p110α (p110δ; delta versus p110α): greater than 100 fold
selective against p110β (p110δ; delta versus p110β): 52 fold
selectivity against p110γ (p110δ; delta versus p110γ): approx. 8 fold
activity against any protein kinases tested (protein kinases): no activity
inflammation and disease in a murine model of asthma (murine model of asthma): significantly ameliorate inflammation and disease
